Measurements as given in PubChem BioAssay AID624258 (Broad Institute, 2012).
Where “and” joins values, the source holds several entries; their conditions need not be identical. Equal values may be shown once. Calls of active or inactive are those of the source. No rule for the calls is given here.

Assay: SKN7 mediated toxicity in Saccharomyces cerevisiae, growth rescue counterscreen, dose confirmation (AID 624258);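 also: growth read after three days of incubation at 30 °C; 0% = median of neutral control wells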
Settings: S. cerevisiae SKN7-toxicity growth rescue, plate reader

| Structure (SMILES) | growth rescue activity (at 19.5 µM (top of the series)) | growth rescue activity (at 6.8 µM (top of the series)) |
| --- | --- | --- |
| Clc1ccc(C2=NCCN2)cc1 | -65.4% (inactive) |  |
| COc1cc(/C=N/O)cc(Br)c1OCc1cccc(Cl)c1 | -82% (inactive) |  |
| CC(C)=CCc1c(O)ccc(C(=O)Cc2ccccc2)c1O | -92.2% (inactive) |  |
| O=C(Oc1c(Cl)cc(Cl)c2cccnc12)c1cccs1 | -79.3% (inactive) |  |
| Cc1ccc(NC(=S)c2nc3ccccc3[nH]2)c(C)c1 | 32.1% (inactive) |  |
| Cn1ccc(=Nc2ccc(NC(=O)c3ccc(N=c4ccn(C)c5ccc([N+](=O)[O-])cc45)cc3)cc2)cc1 | -76.1% (inactive) |  |
| CCc1cc(SC#N)cc(C)c1NC(=O)CCl |  | -50.8% (inactive) |
| O=C(Nc1cccc(C(F)(F)F)c1)c1cccnc1NCCc1ccccc1 | -54.3% (inactive) |  |
| Clc1ccc(COC(Cn2ccnc2)c2ccc(Cl)cc2Cl)c(Cl)c1 (stereo not drawn) | -74.2% (inactive) and -75.5% (inactive) |  |
| CC1=CC(C)(C)N(S(=O)(=O)c2ccc(C)cc2)c2ccc(C)cc21 | -55.9% (inactive) |  |
| Cc1cc(C(=O)COC(=O)Cc2n[nH]c(=O)c3ccccc23)c(C)n1-c1cccc(C(F)(F)F)c1 |  | -21.5% (inactive) |
| CCOc1ccc(S(=O)(=O)n2cc(F)c(=O)[nH]c2=O)cc1 | -4.21% (inactive) |  |
| CCOc1ccc(S(=O)(=O)Nc2cc(SCC(=O)O)c(O)c3ccccc23)cc1 | 21.7% (inactive) |  |
| Oc1c(C(Nc2ccccn2)c2ccccn2)ccc2cccnc12 (stereo not drawn) | -61.4% (inactive) |  |
| S=C1NC[C@H](c2ccccc2)N1CCCCC1CCCCC1 | 85.2% (inactive) |  |
| C=CCN(CC=C)C(=S)NC(=O)c1ccc(C)c(Br)c1 | -13.6% (inactive) |  |
| COc1ccccc1N1CCN(C(=O)CCNS(=O)(=O)c2ccc(Br)s2)CC1 | 9.41% (inactive) |  |
| CN(Cc1cccc(F)c1)C(=O)c1ccc(S(=O)(=O)N2CCCCCC2)cc1 | -8.45% (inactive) |  |
| COC(=O)c1cccc2c1NC(=O)C2=O | -14.3% (inactive) |  |
| CC(=N/O)/C(=N\O)c1ccc(C)o1 | 3.21% (inactive) |  |
| O=C(CSc1ccc(-c2ccccn2)nn1)NCc1ccc(F)cc1 | 1.05% (inactive) |  |
| O/N=C(\c1ccc(Cl)cc1)c1cc2ccccc2o1 | 3.39% (inactive) |  |
| CN1C(=S)SC(N(O)C(=O)Nc2cccc3ccccc23)C1(C)C (stereo not drawn) | 0.395% (inactive) |  |
| N#Cc1ccc(Sc2ccccn2)c([N+](=O)[O-])c1 | 7.91% (inactive) |  |

| Structure (SMILES) | growth rescue activity (at 19.5 µM (top of the series)) | growth rescue activity (at 6.8 µM (top of the series)) |
| --- | --- | --- |
| CCCCc1ccc(-n2c(Cc3cccs3)n[nH]c2=S)cc1 | -23.9% (inactive) |  |
| [O-][n+]1cccc2c(Br)cc(Br)c(O)c21 | -82.7% (inactive) |  |
| CCC(NC(=S)NCc1ccc(F)cc1)c1ccc(C(C)C)cc1 (stereo not drawn) | 41.2% (inactive) |  |
| O=C(CSc1nccn(-c2cccc(F)c2)c1=O)Nc1ccc(Cl)cc1F | 26.9% (inactive) |  |
| O=S1OC(c2ccccc2)c2cc(Cl)ccc21 (stereo not drawn) | -14.3% (inactive) |  |
| Cc1cccc(Nc2nc(-c3ccccn3)cs2)n1 | -59.7% (inactive) |  |
| Cc1cc(O)ccc1N=Cc1c(C(F)(F)F)[nH][nH]c1=O | -11.8% (inactive) |  |
| CCN(CC)C(=O)CSc1ncnc2sc(-c3ccccc3)cc12 | -25.1% (inactive) |  |
| CC(=O)C1=C(c2cccc([N+](=O)[O-])c2)N(C(C)=O)n2c(C)nnc2S1 | -84.3% (inactive) |  |
| O=[N+]([O-])c1ccc(S(=O)(=O)c2ccccc2)nc1 | 10.3% (inactive) |  |
| CC(Nc1cccc2ccccc12)C(=O)N/N=C/c1ccccn1 (stereo not drawn) | -11.5% (inactive) |  |
| C=C(C)COc1ccc(-c2[nH]ncc2-c2ccccc2)c(O)c1 | -93.2% (inactive) |  |
| CC(C)(C)C(O)C(Cc1ccccc1Cl)n1cncn1 (stereo not drawn) | -53.7% (inactive) |  |
| CCCOc1ccc(CSCCNC(=S)Nc2ccccc2)cc1 | 22% (inactive) |  |
| C=CCOC(Cn1ccnc1)c1ccc(Cl)cc1Cl (stereo not drawn) | -40.8% (inactive) |  |
| CCOC(=O)c1ccc(-c2ccc(C3Nc4ccccc4C(=O)N3O)o2)cc1 (stereo not drawn) | -4.76% (inactive) |  |
| O=C(CC1CC2CCC1C2)Nc1nc(-c2ccccn2)cs1 (stereo not drawn) | -53.4% (inactive) |  |
| Cc1[nH]n(C(N)=S)c(=O)c1N=Nc1ccc2ccccc2c1 | -41.4% (inactive) |  |
| O=C1C(Cl)=C(NCc2cccnc2)C(=O)c2ccccc21 | 26.7% (inactive) |  |
| O=C(Sc1cccc2cccnc12)c1ccccc1Br | -59.6% (inactive) |  |
| Oc1ccc(N=Nc2ccc3c(c2)OCCO3)c2cccnc12 | -42.4% (inactive) |  |
| O=C(NCc1ccncc1)c1ccccc1Nc1ccc(SC(F)F)cc1 | -49.8% (inactive) |  |
| Cc1cc(Nc2ccccc2)nn1C(=O)c1ccccc1 | 7.09% (inactive) |  |
| CC1CCN(c2nc(-c3ccncc3)nc3ccccc23)CC1 | -17.2% (inactive) |  |
